The values below come from PubChem BioAssay AID330 (DTP/NCI, 2004).

Structures are written as SMILES. Inconclusive results and toxic doses are left out.

The subject of this assay is P388 leukemia ip, CD2F1 mice, survival T/C. The assay is described as follows: NCI In Vivo Anticancer Drug Screen. Data for tumor model P388 Leukemia (intraperitoneal) in CD2F1 (CDF1) mice. Particulars: endpoint: median survival time, higher = longer survival. An outline of the steps: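 Mice carrying the transplanted tumor received test compound or vehicle. Survival was recorded in each group, and the value is the treated-group measurement divided by that of the vehicle-treated control group.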

Where [1] appears, read: dose: 25.0 mg/kg/injection, schedule: Q01DX009 (ip), vehicle: saline with Tween-80.
Where [2] appears, read: dose: 50.0 mg/kg/injection, schedule: Q01DX009 (ip), vehicle: saline with Tween-80.
Setting [3] is: dose: 100.0 mg/kg/injection, schedule: Q01DX009 (ip), vehicle: saline with Tween-80.
Setting [4] is: dose: 200.0 mg/kg/injection, schedule: Q01DX009 (ip), vehicle: saline with Tween-80.
Where [5] appears, read: dose: 50.0 mg/kg/injection, schedule: Q01DX005 (ip), vehicle: saline.
[6] abbreviates: dose: 100.0 mg/kg/injection, schedule: Q01DX005 (ip), vehicle: saline.
The mark [7] stands for this setting: dose: 50.0 mg/kg/injection, schedule: Q04DX003 (ip), vehicle: saline.
Setting [8] is: dose: 100.0 mg/kg/injection, schedule: Q04DX003 (ip), vehicle: saline with Tween-80.
Setting [9] is: dose: 12.5 mg/kg/injection, schedule: Q04DX003 (ip), vehicle: saline.
Setting [10] is: dose: 25.0 mg/kg/injection, schedule: Q01DX009 (ip), vehicle: saline.
[11] abbreviates: dose: 25.0 mg/kg/injection, schedule: Q04DX003 (ip), vehicle: saline.
The mark [12] stands for this setting: dose: 50.0 mg/kg/injection, schedule: Q01DX009 (ip), vehicle: saline.

Turning to `COC1=CC(C)C2CC3OC(=O)CC4C(C)C(=O)C(O)C(C2(C)C1=O)C34C` (stereo not drawn), the T/C reads like this: (dose: 2.5 mg/kg/injection, schedule: Q01DX009 (ip), vehicle: Klucel (hydroxypropylcellulose) (HPC)) 90 % of control; (dose: 5.0 mg/kg/injection, schedule: Q01DX009 (ip), vehicle: Klucel (hydroxypropylcellulose) (HPC)) 100 % of control; (dose: 10.0 mg/kg/injection, schedule: Q01DX009 (ip), vehicle: Klucel (hydroxypropylcellulose) (HPC)) 106 % of control; (dose: 20.0 mg/kg/injection, schedule: Q01DX009 (ip), vehicle: Klucel (hydroxypropylcellulose) (HPC)) 98 % of control.
On to `N#Cc1ccc(CC(CC(=O)c2ccccc2)c2ccccc2)cc1` (stereo not drawn), for which the T/C under setting [1] was 91 % of control, the T/C under setting [2] was 89 % of control, the T/C under setting [3] was 89 % of control and the T/C under setting [4] is 89 % of control.
For the compound `NC1CNC(C(=O)O)=C(CC(=O)O)C1=O` (stereo not drawn), the T/C is 101 % of control (dose: 4.25 mg/kg/injection, schedule: Q01DX005 (ip), vehicle: sodium bicarbonate); 99 % of control (dose: 8.5 mg/kg/injection, schedule: Q01DX005 (ip), vehicle: sodium bicarbonate); 106 % of control (dose: 17.0 mg/kg/injection, schedule: Q01DX005 (ip), vehicle: sodium bicarbonate); 99 % of control (dose: 34.0 mg/kg/injection, schedule: Q01DX005 (ip), vehicle: sodium bicarbonate).
Take `CCCCc1cc2ccccc2c(OCCN(C)C)n1`: the T/C under setting [5] is 97 % of control; the T/C under setting [6] was 115 % of control; the T/C (dose: 200.0 mg/kg/injection, schedule: Q01DX005 (ip), vehicle: saline) is 111 % of control.
In the case of `Cc1[nH]c2ccc(CN)cc2c1CC(N)C(=O)O` (stereo not drawn), the T/C was 110 % of control (dose: 100.0 mg/kg/injection, schedule: Q01DX001 (ip), vehicle: saline); 104 % of control (dose: 200.0 mg/kg/injection, schedule: Q01DX001 (ip), vehicle: saline); 107 % of control (dose: 400.0 mg/kg/injection, schedule: Q01DX001 (ip), vehicle: saline).
As to `COc1ccc2c(c1O)-c1c(OC)c(O)cc3c1C(C2)NCC3` (stereo not drawn), the T/C runs as follows: (dose: 32.0 mg/kg/injection, schedule: Q01DX009 (ip), vehicle: Klucel (hydroxypropylcellulose) (HPC)) 96 % of control; (dose: 64.0 mg/kg/injection, schedule: Q01DX009 (ip), vehicle: Klucel (hydroxypropylcellulose) (HPC)) 93 % of control; (dose: 128.0 mg/kg/injection, schedule: Q01DX009 (ip), vehicle: Klucel (hydroxypropylcellulose) (HPC)) 100 % of control; (dose: 256.0 mg/kg/injection, schedule: Q01DX009 (ip), vehicle: Klucel (hydroxypropylcellulose) (HPC)) 102 % of control.
As to `OC(CN1CCCC2CCCCC21)c1cc2ccccc2c2ccccc12` (stereo not drawn), the T/C is 108 % of control under setting [3] and 104 % of control under setting [4].
In the case of `c1ccc(N2CCSCC2)cc1`, the T/C was 104 % of control under setting [7]; 150 % of control (dose: 66.0 mg/kg/injection, schedule: Q04DX003 (ip), vehicle: saline with Tween-80); 204 % of control under setting [8]; 190 % of control (dose: 150.0 mg/kg/injection, schedule: Q04DX003 (ip), vehicle: saline with Tween-80); 109 % of control (dose: 200.0 mg/kg/injection, schedule: Q04DX003 (ip), vehicle: saline).
Take `Cc1csc(Cl)c1NC1=NCCN1`: the T/C reads like this: under setting [5], 104 % of control; under setting [6], 107 % of control.
Turning to `CC(=O)CC(=NC(C)(C)C)Nc1ncc(Cl)c2ccccc12`, the T/C is 94 % of control (dose: 50.0 mg/kg/injection, schedule: Q01DX005 (ip), vehicle: saline with Tween-80); 92 % of control (dose: 100.0 mg/kg/injection, schedule: Q01DX005 (ip), vehicle: saline with Tween-80); 97 % of control (dose: 200.0 mg/kg/injection, schedule: Q01DX005 (ip), vehicle: saline with Tween-80).
Turning to `CC(=O)Nc1ccc2c(ccc3ccccc32)c1`, the T/C runs as follows: under setting [1], 107 % of control; under setting [2], 113 % of control; under setting [3], 118 % of control; under setting [4], 115 % of control.
On to `CCCC(C(=O)OCCN(CC)CC)(c1ccccc1)c1ccccc1`, for which the T/C runs as follows: (dose: 12.5 mg/kg/injection, schedule: Q01DX009 (ip), vehicle: saline) 108 % of control; under setting [9], 100 % of control; under setting [10], 100 % of control; under setting [11], 100 % of control; under setting [12], 91 % of control; under setting [7], 100 % of control.
Consider `NC(CO)C(=O)O` (stereo not drawn), for which the T/C was 102 % of control (dose: 12.5 mg/kg/injection, schedule: Q01DX009 (ip), vehicle: saline with Tween-80); 105 % of control under setting [1]; 110 % of control under setting [10]; 114 % of control under setting [2]; 112 % of control [middle of 4 runs] under setting [12]; 104 % of control [middle of 4 runs] (dose: 100.0 mg/kg/injection, schedule: Q01DX009 (ip), vehicle: saline). Moreover, the T/C by setting is: under setting [8], 99 % of control; (dose: 200.0 mg/kg/injection, schedule: Q01DX009 (ip), vehicle: saline) 110 % of control [middle of 4 runs]; (dose: 200.0 mg/kg/injection, schedule: Q04DX003 (ip), vehicle: saline with Tween-80) 97 % of control; (dose: 400.0 mg/kg/injection, schedule: Q04DX003 (ip), vehicle: saline with Tween-80) 100 % of control.
Consider `NC1(c2ccccc2)CON=C(c2ccccc2)C1` (stereo not drawn), for which the T/C by setting is: (dose: 6.25 mg/kg/injection, schedule: Q04DX003 (ip), vehicle: saline) 109 % of control; under setting [9], 104 % of control; under setting [11], 102 % of control; (dose: 100.0 mg/kg/injection, schedule: Q04DX003 (ip), vehicle: saline) 100 % of control.
Turning to `C=C(Cl)C(=NC(C)(C)C)Nc1ccc(Cl)cc1`, the T/C is 114 % of control (dose: 6.25 mg/kg/injection, schedule: Q01DX005 (ip), vehicle: Klucel (hydroxypropylcellulose) (HPC)); 117 % of control (dose: 12.5 mg/kg/injection, schedule: Q01DX005 (ip), vehicle: Klucel (hydroxypropylcellulose) (HPC)); 112 % of control (dose: 25.0 mg/kg/injection, schedule: Q01DX005 (ip), vehicle: Klucel (hydroxypropylcellulose) (HPC)); 110 % of control (dose: 50.0 mg/kg/injection, schedule: Q01DX005 (ip), vehicle: Klucel (hydroxypropylcellulose) (HPC)); 115 % of control (dose: 100.0 mg/kg/injection, schedule: Q01DX005 (ip), vehicle: Klucel (hydroxypropylcellulose) (HPC)).
For `COc1ccc2c3c1OC1C(OC)(OC)C=CC4(Cl)[C@@H](C2)N(C)CC[C@]314` (stereo partly drawn), the T/C by setting is: (dose: 60.0 mg/kg/injection, schedule: Q01DX005 (ip), vehicle: Klucel (hydroxypropylcellulose) (HPC)) 96 % of control; (dose: 120.0 mg/kg/injection, schedule: Q01DX005 (ip), vehicle: Klucel (hydroxypropylcellulose) (HPC)) 96 % of control; (dose: 240.0 mg/kg/injection, schedule: Q01DX005 (ip), vehicle: Klucel (hydroxypropylcellulose) (HPC)) 102 % of control.
Regarding `CN(C)CCSc1nc2ccccc2s1`, the T/C is 101 % of control (dose: 60.0 mg/kg/injection, schedule: Q01DX005 (ip), vehicle: saline) and 104 % of control (dose: 120.0 mg/kg/injection, schedule: Q01DX005 (ip), vehicle: saline).
